Source: BigSolDB 2.1

Cc1[nH]nc2cc([N+](=O)[O-])ccc12
solubility (mole fraction)
Settings	in DMF	in THF	in acetone	in acetonitrile	in ethanol	in ethyl acetate	in n-propanol	in water
278.15 K	0.149	0.0579	0.0251	0.0093	0.0042	0.016	0.0051	2.1e-05
283.15 K	0.161	0.0615	0.0295	0.0109	0.0051	0.0183	0.0061	2.7e-05
288.15 K	0.177	0.0671	0.0336	0.0123	0.0059	0.021	0.0073	3.6e-05
293.15 K	0.195	0.0726	0.0382	0.0139	0.007	0.0232	0.0084	4.71e-05
298.15 K	0.215	0.0781	0.0433	0.0156	0.0083	0.0255	0.0096	6.31e-05
303.15 K	0.236	0.0845	0.0481	0.0174	0.01	0.0295	0.0108	8.01e-05
308.15 K	0.259	0.0903	0.0538	0.019	0.012	0.0328	0.012	9.91e-05
313.15 K	0.283	0.097	0.0595	0.0206	0.014	0.0363	0.0136	0.000123
318.15 K	0.309	0.105	0.0661	0.0222	0.0164	0.0394	0.0155	0.000147
323.15 K	0.337	0.113	0.0738	0.0239	0.0194	0.043	0.0176	0.000179
328.15 K	0.371	0.123	0.0829	0.0254	0.0227	0.0456	0.0204	0.000218
